Results as given in patent US20110160303A1, “N-ALKYLCARBONYL-AMINO ACID ESTER AND N-ALKYLCARBONYL-AMINO LACTONE COMPOUNDS AND THEIR USE” (Edward Tak WEI, priority 2005, published 2011).

Tests used:
[1] = system: skin above the upper lip; assay: Cooling sensation on facial skin, ointment applied to skin above the upper lip; format: in vivo, human; set-up: key to refreshing cooling and absence of skin irritation or eye irritation (“perfect cool”): (*) denotes compounds with refreshing cooling and absence of skin irritation or eye irritation after facial skin or periorbital applications; a “perfect cool.”; conditions: for Duration of Action On-Off (minutes): On (onset): 40 mM (~1% wt/vol) Aquaphor ointment, 40 to 70 mg, time to reach 2 units of coolness; for Duration of Action On-Off (minutes): On (onset) / Duration of Action On-Off (minutes): Off (offset) / Duration of Skin Cooling / Duration of Action On-Off (minutes): duration (offset minus onset): skin above upper lip; for Duration of Action On-Off (minutes): Off (offset) / Duration of Action On-Off (minutes): duration (offset minus onset): 40 mM Aquaphor ointment; for Duration of Action On-Off (minutes): Off (offset): time when coolness drops below 2 units; for Duration of Skin Cooling: 40 mM (1% wt/vol) ointment; for refreshing cooling and absence of skin irritation or eye irritation (“perfect cool”): after facial skin or periorbital applications
Description: A reliable place for topical application is the skin above the upper lip (above the vermilion border of the lips), on the philtrum, lateral to the philtrum until the nasolabial folds, and on the lower nostrils (subnasale). This part of the face is known to be densely innervated with cold receptors, second only to the surfaces of the eyeball and anogenitalia. A second location is on or below the malar eminence (cheekbone). The skin above the cheekbone is thicker than above the lips, and therefore has a higher threshold for activation. At both loci, tingling, cool and cold sensations in the skin may be experienced and rated for time of onset and intensity.
The intensity of the subjective skin sensation is rated as 0, 1, 2 or 3 with: 0 as no change; 1 as slight coolness, cold, or tingling; 2 as clear-cut signal of coolness, cold, or tingling; and 3 as robust cooling or cold. The intervals for recording sensations are 5 to 10 minutes, until two successive zeroes are obtained. The results (shown in FIGS. 1 and 2) are averaged values of 4 to 6 separate trials in the same individual. The data are plotted using SigmaPlot® (Systat Software, Point Richmond Calif.) and a smoothing function with a negative exponential was used for analysis and statistical fit of the results. Confirmatory trials of cooling action of the long-acting NACE compounds were obtained in 2 to 4 individuals but not quantified for some because of the large number of chemicals that were evaluated.
(§1) The onset of drug action is taken as the time to reach 2 units of coolness intensity, and offset of drug action is the time when coolness intensity drops below 2, after previously surpassing 2 units. The duration of cooling action is defined as the offset time minus the onset time. […] The quality of the sensation is noted, for example, as pure refreshing coolness, or if the sensation is accompanied by irritation (stinging or burning). The quality of the sensation is not rated for intensity.
For bioassay on the skin, approximately 30 mg was stirred and dissolved in 3 g of warm liquid Aquaphor® ointment to a yield a 40 mM (˜1% wt/vol) ointment. The exact amount was adjusted so that the molar equivalent was about 35 to 40 mM. After cooling, 40 to 70 mg of the solid ointment was placed on the tip of a plastic stick and applied to the skin above the upper lip, on the philtrum, and lateral to the philtrum, up to the nasolabial folds, of test subjects and the onset and duration of cooling sensations noted.
The intensity of the subjective skin sensation was rated as 0, 1, 2 or 3 with: 0 as no change; 1 as slight coolness, cold, or tingling; 2 as clear signal of coolness, cold, or tingling; and 3 as robust cooling or cold. The intervals for recording sensations were 5 to 10 minutes, until two successive zeroes were obtained. The results (shown in FIGS. 1 and 2) are averaged values of 4 to 6 separate trials in the same individual. The data are plotted using SigmaPlot® (Systat Software, Point Richmond, Calif., USA) and a smoothing function with a negative exponential was used for analysis and statistical fit of the results.
as §1, with “was” for “is”, “was also noted: such” for “is noted, for example,”
Test compounds were singly applied to the skin above the upper lips at a 40 to 70 mg dose of a 1% wt/vol ointment.

[2] = system: tongue; assay: Threshold for cooling on the tongue; format: in vivo, human; conditions: for Threshold tongue: threshold for cooling on the tongue
Method: Watson et al. (U.S. Pat. No. 4,178,459) tested the properties of N-substituted p-menthane carboxamides on volunteers by putting filter paper (1×1 cm), impregnated with a known amount of compound, onto the dorsal surface of the tongue of the test subject. After 30 seconds, the subject was required to report presence or absence of a cooling effect. […] The average threshold of (−)-menthol for 6 subjects was 0.25 μg, but there was a 100-fold variation in individual sensitivity. As noted above, coolness signals detected from the dorsal surface of the tongue may be confounded by gustatory, olfactory, and other variables, as well as by dilution from saliva. The octanol/water partition coefficients (given in log P units) for a number of compounds were determined and are shown in Table 7, together with the threshold for cooling on the tongue tested at 40 mM. […] A longer duration of action was not precisely matched with log P values.

[3] = Octanol/water partition coefficient; format: physicochemical
Method: The octanol/water partition coefficients (given in log P units) for a number of compounds were determined and are shown in Table 7, together with the threshold for cooling on the tongue tested at 40 mM. […] A longer duration of action was not precisely matched with log P values.

[4] = system: periorbital area; assay: Study 4: 1% ointment applied bilaterally to the periorbital area; format: in vivo, human; conditions: for irritation of skin and eye surfaces: periorbital application
Description: A 1% preparation of 2-isopropyl-5-methyl-cyclohexanecarbonyl D-alanine methyl ester in Aquaphor® ointment was applied bilaterally to the periorbital area of four individuals. […] This alerting effect lasted for about one hour. This experiment was then repeated three days later in the evening with the same individuals whose occupations required daylong activities before a computer screen. Again, application of the ointment about the periorbital area was reported to relieve fatigue, enhance visual acuity, and to increase attention span and focus. Sensations of refreshment and improved mood were also noted.

[5] = system: oral cavity; assay: Oral cavity test, substance placed on dorsal surface of the tongue; format: in vivo, human; conditions: for sensory irritation in the mouth: Study 7, same test conditions
Method: The subject is instructed to close and hold the substance in the mouth for at least 10 seconds and not to swallow. The description of sensations is then recorded at 5 minute intervals.
The compounds of Formula (1) and (2) are white crystalline solids at room temperatures. These compounds were tested as such, or mixed 1:1 with powdered or granulated sugar. The test substances were applied at 1 to 5 mg on the mid-point of the dorsal surface of the tongue using a metal spatula or a plastic applicator. After depositing the test substance on the tongue, the subject was instructed to keep the mouth closed and allow the fluids of the mouth to inter-mix with the test substance and to distribute it to the back of the mouth (oropharynx). The presence and duration of subjective sensations from the mouth was then noted.
In normal subjects, the effects of the D-Ala methyl and ethyl ester compounds falling within Formula (1) ((R)-2-[((1R,2S,5R)-2-isopropyl-5-methyl-cyclohexanecarbonyl)-amino]-propionic acid methyl or ethyl ester)) were examined. Three doses of 1, 2 and 4 mg per application were examined and compared to a similar dose of the L-Ala methyl or ester analog ((S)-2-[((1R,2S,5R)-2-isopropyl-5-methyl-cyclohexanecarbonyl)-amino]-propionic acid methyl or ethyl ester). At the 2 or 4 mg dose, all compounds produced pleasant and robust cooling sensations on the tongue, extending down to the back of throat, and lasted for about 30 minutes and longer. The onset effect was usually within 30 seconds of application.

[6] = system: face; assay: Study 3: towelette used to wipe the face; format: in vivo, human
Method: 2-Isopropyl-5-methyl-cyclohexanecarbonyl D-alanine methyl ester was dissolved in warm 10% propylene-glycol/90% distilled water solution to give a concentration of either 0.1 or 0.5% wt/vol (1 or 5 mg/mL). Six to seven milliliters of these solutions were then applied with a pipette onto a paper napkin (Luncheon Napkins, Kirkland Signature brand from Costco, Inc.) The napkin was 1-ply with a 30.4×29.5 cm dimension. Each napkin was then hermetically sealed in a plastic envelope (Foodsaver by Tilia). On two separate occasions involving golfing trips to Los Angeles, Calif., USA, where air temperatures exceeded […] (90° F.), these towelettes were used to wipe the face. Pleasant cooling sensations were obtained that lasted for about 10 minute for the 0.1% concentration towelette and about 60 minutes for the 0.5% towelette.

[7] = system: irritated skin (acneiform dermatitis treated with Tazorac); assay: Study 5: ointment on skin irritated by Tazorac; format: in vivo, human; conditions: 1.5% in Aquaphor
Method: A person was treated with Tazorac® (tazarotene topical gel) for acneiform dermatitis on their cheeks. After using these medications for several days, they noted redness, itching, and uncomfortable burning sensations on the skin where these medications had been placed. A 1.5% preparation of 2-isopropyl-5-methyl-cyclohexanecarbonyl α-alanine methyl ester in Aquaphor® ointment was then applied to the sites of irritation. Sensations of coolness on the skin were noted within 5 minutes and lasting for an average of 30 minutes. The discomfort of the irritated skin was abated within five minutes and the subject felt better.

[8] = 1% in Aquaphor, periorbital, four individuals

Row | Log P [3] | SMILES | Duration of Action On-Off (minutes): On (onset) [1] | Duration of Action On-Off (minutes): Off (offset) [1] | Threshold tongue [2] | irritation of skin and eye surfaces [4] | Duration of Skin Cooling [1] | Duration of Action On-Off (minutes): duration (offset minus onset) [1] | refreshing cooling and absence of skin irritation or eye irritation (“perfect cool”) [1] | also measured
1 | 3.7 | CCNC(=O)C1CC(C)CCC1C(C)C (stereo not drawn) [WS-3, reference compound] | 5 min | 23 min | 0.2 µg | significant skin and eye irritation | – | – | – | –
2 | – | COC(=O)[C@@H](C)NC(=O)[C@@H]1C[C@H](C)CC[C@H]1C(C)C [D-Ala Me Ester, (R)-2-[((1R,2S,5R)-2-isopropyl-5-methyl-cyclohexanecarbonyl)-amino]-propionic acid methyl ester] | 1 min | 115 min | – | No irritation of the eye surfaces | 1.9 h | 114 min | D-Ala Me Ester (*) | duration of cooling sensations on the tongue ([5]; dose of 1 to 2 mg, normal subjects): about 30 minutes; duration of pleasant cooling sensations, 0.1% towelette ([6]; 0.1% wt/vol in 10% propylene-glycol/90% water on napkin, face): about 10 minute; eye irritation ([6]; 0.1 or 0.5% towelette): No eye irritation; duration of pleasant cooling sensations, 0.5% towelette ([6]; 0.5% wt/vol in 10% propylene-glycol/90% water on napkin, face): about 60 minutes; duration of alerting effect ([4]; 1% in Aquaphor, periorbital): about one; duration of coolness on the skin (average) [4, 8]: 30 min; onset of coolness on the skin [4, 8]: ≤ 1 min; duration of coolness on irritated skin (average) [7]: 30 min; time until discomfort of the irritated skin was abated [7]: five; onset of sensations of coolness on irritated skin ([7]; one subject): ≤ 5 min
3 | 2.9 | CC1CCC(C(C)C)C(C(=O)NC(C)(C)CO)C1 (stereo not drawn) [WS-11, reference compound] | 8 min | 18 min | 0.3 µg | significant skin and eye irritation | 0.2 h | 10 min | – | –
4 | – | CNC(=O)C(C)(C(C)C)C(C)C [WS-23, N-2,3-trimethyl-2-isopropylbutanamide, reference compound] | – | – | – | significant skin and eye irritation | – | – | – | –
5 | 4.5 | CC1CCC(C(C)C)C(C(=O)NC(C)(C)C)C1 (stereo not drawn) [WS-14, reference compound] | 15 min | 23 min | 0.4 µg | significant skin and eye irritation | 0.1 h | 8 min | – | –
6 | 2.9 | CCOC(=O)CN(C)C(=O)C1CC(C)CCC1C(C)C (stereo not drawn) [Sar Et Ester] | 2 min | 65 min | 0.8 µg | – | 1.0 h | 63 min | Sar Et Ester (*) | duration of action relative to WS-11 ([1]; in vivo): five; times less potent than WS-11 on the tongue threshold test ([2]; in vivo): 2.7 times; sensory irritation in the mouth [5]: some sensory irritation
7 | – | CCOC(=O)CNC(=O)[C@@H]1C[C@H](C)CC[C@H]1C(C)C [Gly Et Ester (WS-5), N-p-menthanecarbonyl glycine ethyl ester, reference compound] | 4 min | 37 min | 0.2 µg | – | 0.5 h | 33 min | Gly Et Ester (WS-5) (*) | logP [3]: 2.9; sensory irritation in the mouth [5]: some sensory irritation
